# System: Plutella xylostella
# Assay: Insecticidal test against Plutella xylostella
# Details: 500 ppm drug solution, Chinese cabbage seedlings with eggs immersed about 30 sec, six days after immersion, 25° C.
# Description: Six days after the immersion in the drug solution, the number of surviving insects was examined. […] In triplicate using 10 per plot.
row,SMILES,"corrected mortality, rating of assessment"
1,CC1C(=O)C(C(=S)Nc2ccc(F)cc2)=C(O)C2CCc3cc(C(F)(F)F)ccc3C12 (stereo not drawn) [2-9],D or higher
2,O=C1CC2c3ccc(C(F)(F)F)cc3CCC2C(O)=C1C(=O)Nc1ccc(F)cc1 (stereo not drawn) [2-2],D or higher
3,O=C(Nc1ccc(Oc2ccccc2)cc1)C1=C(O)CC(c2ccc(C(F)(F)F)cc2)C2(CCCCC2)C1=O (stereo not drawn) [1-38],D or higher
4,O=C(Nc1ccc(F)cc1)C1=C(O)CC(c2ccc(C(F)(F)F)cc2)C2(CCOCC2)C1=O (stereo not drawn) [1-45],D or higher
5,Cl.O=C(Nc1ccc(F)cc1)C1=C(O)CC(c2ccc(C(F)(F)F)cc2)C2(CCNCC2)C1=O (stereo not drawn) [1-136],D or higher
6,O=C1CC2c3cc(C(F)(F)F)ccc3CC2C(O)=C1C(=O)Nc1ccc(F)cc1 (stereo not drawn) [2-1],D or higher
7,O=C(Nc1ccc(F)cc1)C1=C(O)CC(c2ccc(C(F)(F)F)cc2)C2(CCCC2)C1=O (stereo not drawn) [1-28],D or higher
8,O=C1C(C(=S)Nc2ccc(F)cc2)=C(O)CC(c2ccc(C(F)(F)F)cc2)C12CCCC2 (stereo not drawn) [1-48],D or higher
9,O=C(Nc1ccc(SC(F)(F)F)cc1)C1=C(O)CC(c2ccc(C(F)(F)F)cc2)C2(CCCCC2)C1=O (stereo not drawn) [1-120],D or higher
10,"C#CCC1C(=O)C(C(=O)Nc2ccc(F)cc2)=C(O)CC1c1ccc(C(F)(F)F)cc1 (stereo not drawn) [1-7, N-(4-fluorophenyl)-5-hydroxy-3-oxo-2-(prop-2-yn-1-yl)-4′-(trifluoromethyl)-1,2,3,6-tetrahydro-[1,1′-biphenyl]-4-carboxamide]",D or higher
11,O=C(Nc1ccc(OC(F)(F)F)cc1)C1=C(O)CC(c2ccc(C(F)(F)F)cc2)C2(CCCCC2)C1=O (stereo not drawn) [1-122],D or higher
12,CC1(C)C(=O)C(C(=O)Nc2ccc(F)nc2)=C(O)CC1c1ccc(Br)cn1 (stereo not drawn) [1-143],D or higher
13,O=C(Nc1ccccc1-c1ccccc1)C1=C(O)CC(c2ccc(C(F)(F)F)cc2)C2(CCCCC2)C1=O (stereo not drawn) [1-119],D or higher
14,CC1(C)C(=O)C(C(=S)Nc2ccc(OC(F)(F)F)cc2)=C(O)CC1c1ccc(C(F)(F)F)cc1 (stereo not drawn) [1-22],D or higher
15,CC1C(=O)C(C(=O)Nc2ccc(F)cc2)=C(O)C2CCc3cc(C(F)(F)F)ccc3C12 (stereo not drawn) [2-4],D or higher
16,O=C(Nc1ccc([N+](=O)[O-])cc1)C1=C(O)CC(c2ccc(C(F)(F)F)cc2)C2(CCCCC2)C1=O (stereo not drawn) [1-118],D or higher
17,CC1(C)C(=O)C(C(=S)Nc2ccc(F)cc2)=C(O)CC1c1ccc(C(F)(F)F)cc1 (stereo not drawn) [1-20],D or higher
18,C#CCC1C(=O)C(C(=S)Nc2ccc(F)cc2)=C(O)CC1c1ccc(C(F)(F)F)cc1 (stereo not drawn) [1-18],D or higher
19,CC1(C)C(=O)C(C(=O)Nc2ccc(F)cn2)=C(O)CC1c1ccc(Br)cn1 (stereo not drawn) [1-142],D or higher
20,CC1C(=O)C(C(=O)Nc2ccc(F)cc2)=C(O)CC1(C)c1ccc(C(F)(F)F)cc1 (stereo not drawn) [1-3],D or higher

# System: Laodelphax striatellus
# Assay: Insecticidal test against Laodelphax striatellus
# Details: 500 ppm drug solution, rice seedlings immersed 30 seconds, three-instar insects, eight days after inoculation
row,SMILES,"corrected mortality, rating of assessment"
1,O=C(Nc1ccc(F)cc1)C1=C(O)CC(c2ccc(C(F)(F)F)cc2)C2(CCCC2)C1=O (stereo not drawn) [1-28],D or higher

# System: Dirofilaria immitis
# Assay: Influence evaluation test on the growth of Dirofilaria immitis
# Format: cell-based
# Details: 168 h, read-out: development inhibition rate from the L3 stage larva to the L4-stage larva
row,SMILES,inhibition at 10 µM
1,"C#CCC1C(=O)C(C(=O)Nc2ccc(F)cc2)=C(O)CC1c1ccc(C(F)(F)F)cc1 (stereo not drawn) [1-7, N-(4-fluorophenyl)-5-hydroxy-3-oxo-2-(prop-2-yn-1-yl)-4′-(trifluoromethyl)-1,2,3,6-tetrahydro-[1,1′-biphenyl]-4-carboxamide]",≥ 50%

# System: Frankliniella occidentalis
# Assay: Insecticidal test against Frankliniella occidentalis
# Details: 500 ppm drug solution sprayed on hatched larvae on Phaseolus vulgaris leaf pieces, four days after treatment
# Description: Female adults of Frankliniella occidentalis were inoculated onto Phaseolus vulgaris leaf pieces, and after allowing them to lay eggs for one day, the female adults were removed. […] Four days after the treatment, the number of surviving larvae of this species was examined. […] In duplicate.
row,SMILES,"corrected mortality, rating of assessment"
1,CC1C(=O)C(C(=O)Nc2ccc(C(F)(F)F)cc2)=C(O)CC1c1ccc(C(F)(F)F)cc1 (stereo not drawn) [1-2],D or higher
2,CC1(C)C(=O)C(C(=O)Nc2ccc(F)c(F)c2)=C(O)CC1c1ccc(C(F)(F)F)cc1 (stereo not drawn) [1-10],D or higher
